Test results taken from patent US20200255844A1, “MULTIPLEXED RECEPTOR-LIGAND INTERACTION SCREENS” (THE REGENTS OF THE UNIVERSITY OF CALIFORNIA, priority 2017, published 2020).

Assays:
MOR133-1 = assay: High-throughput multiplexed odorant screening (Smell-seq), barcode RNA-seq readout; format: cell-based, mouse; conditions: OR MOR133-1; pair called as hit, FDR=1%
Source text: (§1) We subsequently screened 182 odorants at three concentrations in triplicate against the OR cell library, the equivalent of ˜85,000 individual luciferase assays including controls (FIG. 10A, Table 2). Each 96-well plate in the assay contained positive control odorants and solvent DMSO wells for normalization (FIG. 16). We used the EdgeR software package to determine differentially responsive ORs based on a negative binomial model of barcode counts. We found 114 OR-odorant interactions (out of 7,200 possible), 81 of which are novel, and 24 interactions with 15 orphan receptors (FIG. 10C, FIG. 17 and Supplementary Table 4) (FDR=1%; Benjamini-Hochberg correction). Overall 28 of 39 receptors were activated by at least one odorant, and 68 of 182 odorants activated at least one OR (Table 4). We chose 37 interactions of at least 1.2 fold induction to test individually with a previously developed transient OR assay that has several important differences (FIG. 18). Of the 28 interactions called as hits at an FDR of 1%, 21 of them replicated in this orthogonal system (FIG. 17). […] Conversely, we also detect 14 interactions that this previous study tested, but called negative.

MOR132-1 = molecular target: T1, MOR132-1 (Mus musculus, UniProt Q8VFM9); assay: as above; format: cell-based; conditions: OR MOR132-1; pair called as hit, FDR=1%
T1 construct: protein trafficking tags (N); expressed in transfected cells; host or cells: HEK293T-derived cells (Mukku3a), PiggyBac transposon, Tet-On inducible
T1 sequence (Q8VFM9 whole entry): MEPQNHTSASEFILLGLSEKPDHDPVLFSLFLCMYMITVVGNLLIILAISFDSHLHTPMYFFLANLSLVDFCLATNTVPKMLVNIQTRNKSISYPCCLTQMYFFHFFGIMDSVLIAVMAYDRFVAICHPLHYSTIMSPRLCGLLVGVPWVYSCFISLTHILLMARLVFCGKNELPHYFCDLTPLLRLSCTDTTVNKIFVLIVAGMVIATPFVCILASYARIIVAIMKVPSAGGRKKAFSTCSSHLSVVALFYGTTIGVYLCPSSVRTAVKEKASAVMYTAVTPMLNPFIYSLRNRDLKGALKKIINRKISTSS
Source text: as §1

MOR102-1 = assay: as above; format: cell-based, mouse; conditions: OR MOR102-1; pair called as hit, FDR=1%
Source text: as §1

MOR120-1 = assay: as above; format: cell-based, mouse; conditions: OR MOR120-1; pair called as hit, FDR=1%
Source text: as §1

MOR189-1 = assay: as above; format: cell-based, mouse; conditions: OR MOR189-1; pair called as hit, FDR=1%
Source text: as §1

MOR30-1 = assay: as above; format: cell-based, mouse; conditions: OR MOR30-1; pair called as hit, FDR=1%
Source text: as §1

MOR142-1 = assay: as above; format: cell-based, mouse; conditions: OR MOR142-1; pair called as hit, FDR=1%
Source text: as §1

MOR208-1 = assay: as above; format: cell-based, mouse; conditions: OR MOR208-1; pair called as hit, FDR=1%
Source text: as §1

MOR158-1 = assay: as above; format: cell-based, mouse; conditions: OR MOR158-1; pair called as hit, FDR=1%
Source text: as §1

MOR170-1 = assay: High-throughput multiplexed odorant screening (Smell-seq), 96-well, barcode RNA-seq readout; format: cell-based, mouse; conditions: OR MOR170-1; pair called as hit, FDR=1%
Protocol: 10. High-Throughput Odorant Screening
The OR library cell line was thawed from a liquid nitrogen frozen stock into a T-225 flask (Corning) three days before seeding into a 96-well plate for screening. The library was seeded at 6,666 cells per well in 100 ul of DMEM. 24 hours later a working concentration of 1 ug/ml of doxycycline in DMEM was added to the wells. 24 hours after induction, the media was removed from each plate and replaced with 25 ul of odorant diluted in OptiMEM. Each odor was added at three different concentrations (10 uM, 100 uM, 1 mM) in triplicate with the same amount of final DMSO (1%). Each plate contained two control odorants at a three concentration (10 uM, 100 uM, 1 mM) in triplicate and three wells containing 1% DMSO dissolved in media. The library was incubated with odorants for three hours in a cell culture incubator with the lids removed.
After odor incubation, media was pipetted out of the plates and cells were lysed by adding 25 uL of ice-cold Cells-to-cDNA II Lysis Buffer (Thermo Fisher) and pipetting up and down to homogenize and lyse cells. The lysate was then heated to 75° C. for 15 minutes and flash frozen with liquid nitrogen and kept at −80 C until further processing. Then 0.5 uL DNase I (New England Biolabs) was added to lysate, and incubated at 37° C. for 15 minutes. To anneal the RT primer, 5 ul of lysate from each well was combined with 2.5 ul of 10 mM dNTPs (New England Biosciences), 1 ul of 2 uM gene specific RT primer (OL003), and 1.5 ul of H2O. The reaction was heated to 65° C. for 5 min and cooled back down to 0° C. After annealing, 1 ul of M-MuLV Reverse Transcriptase (Enzymatics), 1 ul of buffer, and 0.25 ul of RNase Inhibitor (Enzymatics) were added to each reaction. Reactions were incubated at 42° C. for 60 min and the RT enzyme was heat inactivated at 85° C. for 10 min.
For each batch, qPCR was performed on a few wells (OL005F and OL013) with SYBR FAST qPCR Mastermix to determine the number of cycles necessary for PCR based library preparation. The reaction and cycling conditions are optimized as follows: 95° C. for 3 minutes, 40 cycles of 95° C. for 3 seconds and 60° C. for 20 seconds. After qPCR, 5 ul of each RT reaction was combined with 0.4 ul of 10 uM primers containing sequencing adaptors (OL005F and OL013), 10 ul of NEB-Next Q5 Mastermix (New England Biosciences) and 4.2 ul H2O, the PCR was carried out according to the manufacturer's protocol. The forward primer contains the P7 adaptor sequence and an index identifying the well in the assay and the reverse primer contains the P5 adaptor sequence and an index identifying the plate in the assay. PCR products were pooled together by plate and purified with the DNA Clean and Concentrator Kit. Library concentrations were quantified using a Tape Station 2200 and a Qubit (Thermo Fisher). The libraries were sequenced with two index reads and a single end 75-bp read on a NextSeq 500 in high-output mode (Illumina).
11. Analysis of Next-Generation Sequencing Data
Samples were identified via indexing by their PCR indexes adapters unique for each well (5′ end) and unique for each plate (3′ end). The well barcodes followed the 7 bp indexing scheme in (Illumina Sequencing Library Preparation for Highly Multiplexed Target Capture and Sequencing Matthias Meyer, Martin Kircher, Cold Spring Harb Protoc; 2010; doi:10.1101/pdb.prot5448). The plate indexing scheme followed the Illumina indexing scheme. Sequencing data was demultiplexed and 15 bp barcode sequences were counted with only exact matches by custom python and bash scripts.
12. Statistical Methods for Calling Hits
Count data was then analyzed using the differential expression package EdgeR. To filter out ORs with low representation, we set a cutoff that an OR had to contain at least 0.5% of the reads from more than 399 of the 1954 test samples. This filtered out 3 of 42 ORs which were underrepresented in the cell library (MOR172-1, MOR176-1 and MOR181-1). […]

MOR203-1 = assay: High-throughput multiplexed odorant screening (Smell-seq), barcode RNA-seq readout; format: cell-based, mouse; conditions: OR MOR203-1; pair called as hit, FDR=1%
Source text: as §1

MOR180-1 = molecular target: T2, MOR180-1 (Mus musculus, UniProt Q8VGS3); assay: as above; format: cell-based; conditions: OR MOR180-1; pair called as hit, FDR=1%
T2 construct: protein trafficking tags (N); expressed in transfected cells; host or cells: HEK293T-derived cells (Mukku3a), PiggyBac transposon, Tet-On inducible
T2 sequence (Q8VGS3 whole entry): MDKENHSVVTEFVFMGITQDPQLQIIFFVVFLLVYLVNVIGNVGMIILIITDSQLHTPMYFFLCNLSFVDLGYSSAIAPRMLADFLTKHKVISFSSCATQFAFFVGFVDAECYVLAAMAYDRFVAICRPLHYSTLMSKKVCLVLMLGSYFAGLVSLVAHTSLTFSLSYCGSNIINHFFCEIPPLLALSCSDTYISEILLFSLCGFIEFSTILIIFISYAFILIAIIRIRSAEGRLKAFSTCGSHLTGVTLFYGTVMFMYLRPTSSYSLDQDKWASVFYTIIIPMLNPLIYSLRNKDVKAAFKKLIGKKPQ
Source text: as §1

MOR 199-1 = assay: as above; format: cell-based, mouse; conditions: OR MOR 199-1; pair called as hit, FDR=1%
Source text: as §1

Olfr62 = assay: as above; format: cell-based, mouse; conditions: OR Olfr62; pair called as hit, FDR=1%
Source text: as §1

MOR131-1 = assay: as above; format: cell-based, mouse; conditions: OR MOR131-1; pair called as hit, FDR=1%
Source text: as §1

MOR9-1 = assay: as above; format: cell-based, mouse; conditions: OR MOR9-1; pair called as hit, FDR=1%
Source text: as §1

MOR112-1 = assay: as above; format: cell-based, mouse; conditions: OR MOR112-1; pair called as hit, FDR=1%
Source text: as §1

MOR139-1 = assay: as above; format: cell-based, mouse; conditions: OR MOR139-1; pair called as hit, FDR=1%
Source text: as §1

In the case of `CCCCCC(=O)CC` [3-Octanone], the “Minimum Activating Concentration” value (MOR133-1) is reported as 1000 µM.

With `CC(=O)O[C@]1(C)CC[C@@]23C[C@@H]1C(C)(C)[C@@H]2CC[C@H]3C` [Cedryl acetate] the “Minimum Activating Concentration” value (MOR132-1) was 1000 µM, the “Minimum Activating Concentration” value (MOR102-1) was 1000 µM and the “Minimum Activating Concentration” value (MOR120-1) was 1000 µM. For the same compound, the “Minimum Activating Concentration” value (MOR189-1) was 1000 µM, the “Minimum Activating Concentration” value (MOR30-1) was 1000 µM and the “Minimum Activating Concentration” value (MOR142-1) was 1000 µM. For the same compound, the “Minimum Activating Concentration” value (MOR208-1) was 1000 µM.

With `CC(=O)C1(C)CC2=C(CCCC2(C)C)CC1C` (stereo not drawn) [Iso E Super] the “Minimum Activating Concentration” value (MOR158-1) was 1000 µM.

`CC(=O)OCc1ccc2c(c1)OCO2` [Piperonyl acetate] was tested, and the “Minimum Activating Concentration” value (MOR170-1) was 1000 µM and the “Minimum Activating Concentration” value (MOR203-1) was 1000 µM.

In the case of `CCCCC/C(=C\c1ccccc1)C(OC)OC` [a-Amylcinnamaldehyde dimethyl acetal], the “Minimum Activating Concentration” value (MOR180-1) is reported as 1000 µM.

With `CCc1occc(=O)c1O` [ethyl maltol] the “Minimum Activating Concentration” value (MOR170-1) was 1000 µM, the “Minimum Activating Concentration” value (MOR 199-1) was 100 µM and the “Minimum Activating Concentration” value (Olfr62) was 1000 µM.

In the case of `CC1COCc2cc3c(cc21)C(C)(C)C(C)C3(C)C` (stereo not drawn) [galaxolide], the “Minimum Activating Concentration” value (MOR131-1) is reported as 1000 µM, the “Minimum Activating Concentration” value (MOR9-1) is reported as 1000 µM and the “Minimum Activating Concentration” value (MOR112-1) is reported as 100 µM.

In the case of `CC(C=O)Cc1ccc2c(c1)OCO2` (stereo not drawn) [helional], the “Minimum Activating Concentration” value (MOR170-1) is reported as 1000 µM, the “Minimum Activating Concentration” value (MOR139-1) is reported as 1000 µM and the “Minimum Activating Concentration” value (MOR203-1) is reported as 1000 µM.
